Tested on: HBV
Test: HBV-DNA Antiviral Assay Using HepG2.117 Cells (intracellular HBV DNA by qPCR)
Assay type: cell-based, hepatitis B virus (genotype D)
Conditions: Hepatitis B virus, HepG2.117
Summary of the method: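 HepG2.117 cells (genotype D HBV, Tet-off) were induced by doxycycline withdrawal and treated for 3 days with 9 concentrations in 4-fold dilution, 2% DMSO final. Intracellular HBV DNA was measured by qPCR against a standard curve, with ATPlite viability read in parallel. EC50, EC90 and CC50 came from fits against the DMSO control.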

## C[C@@H](Oc1ccc([C@@H](C)NC(=O)c2c3n(c(=O)n2-c2ccc(OC4CC4)cc2)CCN(C(=O)c2ccc(Br)c(Cl)c2)C3)c(F)c1)C(N)=O (stereo in doubt) [Example 355, 7-(4-bromo-3-chloro-benzoyl)-2-[4-(cyclopropoxy)phenyl]-3-oxo-N-[rac-(1R)-1-[2-fluoro-4-[rac-(1R)-2-amino-1-methyl-2-oxo-ethoxy]phenyl]ethyl]-6,8-dihydro-5H-imidazo[1,5-a]pyrazine-1-carboxamide]
  EC50: 500 to 5000 nM

## C[C@H](Oc1ccc([C@@H](C)NC(=O)c2c3n(c(=O)n2-c2ccc(OC4CC4)cc2)CCN(C(=O)c2ccc(Br)c(Cl)c2)C3)c(F)c1)C(N)=O (stereo in doubt) [Example 356, 7-(4-bromo-3-chloro-benzoyl)-2-[4-(cyclopropoxy)phenyl]-3-oxo-N-[rac-(1R)-1-[2-fluoro-4-[rac-(1S)-2-amino-1-methyl-2-oxo-ethoxy]phenyl]ethyl]-6,8-dihydro-5H-imidazo[1,5-a]pyrazine-1-carboxamide]
  EC50: 100 to 500 nM

## C[C@H](NC(=O)c1c2n(c(=O)n1-c1ccc(OC3CC3)cc1)CCN(C(=O)c1ccc(Br)c(Cl)c1)C2)c1ccc(O[C@H](C)C(N)=O)cc1F (stereo in doubt) [Example 357, 7-(4-bromo-3-chloro-benzoyl)-2-[4-(cyclopropoxy)phenyl]-3-oxo-N-[rac-(1S)-1-[2-fluoro-4-[rac-(1R)-2-amino-1-methyl-2-oxo-ethoxy]phenyl]ethyl]-6,8-dihydro-5H-imidazo[1,5-a]pyrazine-1-carboxamide]
  EC50: 100 to 500 nM

## C[C@H](Oc1ccc([C@H](C)NC(=O)c2c3n(c(=O)n2-c2ccc(OC4CC4)cc2)CCN(C(=O)c2ccc(Br)c(Cl)c2)C3)c(F)c1)C(N)=O (stereo in doubt) [Example 358, 7-(4-bromo-3-chloro-benzoyl)-2-[4-(cyclopropoxy)phenyl]-3-oxo-N-[rac-(1S)-1-[2-fluoro-4-[rac-(1S)-2-amino-1-methyl-2-oxo-ethoxy]phenyl]ethyl]-6,8-dihydro-5H-imidazo[1,5-a]pyrazine-1-carboxamide]
  EC50: < 100 nM

## C[C@@H](Oc1ccc([C@@H](C)NC(=O)c2c3n(c(=O)n2-c2ccc(OCC(F)(F)F)cc2)CCN(C(=O)c2ccc(Br)c(Cl)c2)C3)c(F)c1)C(N)=O (stereo in doubt) [Example 359, 7-(4-bromo-3-chloro-benzoyl)-3-oxo-N-[rac-(1R)-1-[2-fluoro-4-[rac-(1R)-2-amino-1-methyl-2-oxo-ethoxy]phenyl]ethyl]-2-[4-(2,2,2-trifluoroethoxy)phenyl]-6,8-dihydro-5H-imidazo[1,5-a]pyrazine-1-carboxamide]
  EC50: 500 to 5000 nM

## C[C@H](Oc1ccc([C@@H](C)NC(=O)c2c3n(c(=O)n2-c2ccc(OCC(F)(F)F)cc2)CCN(C(=O)c2ccc(Br)c(Cl)c2)C3)c(F)c1)C(N)=O (stereo in doubt) [Example 360, 7-(4-bromo-3-chloro-benzoyl)-3-oxo-N-[rac-(1R)-1-[2-fluoro-4-[rac-(1S)-2-amino-1-methyl-2-oxo-ethoxy]phenyl]ethyl]-2-[4-(2,2,2-trifluoroethoxy)phenyl]-6,8-dihydro-5H-imidazo[1,5-a]pyrazine-1-carboxamide]
  EC50: 500 to 5000 nM

## C[C@H](NC(=O)c1c2n(c(=O)n1-c1ccc(OCC(F)(F)F)cc1)CCN(C(=O)c1ccc(Br)c(Cl)c1)C2)c1ccc(O[C@H](C)C(N)=O)cc1F (stereo in doubt) [Example 361, 7-(4-bromo-3-chloro-benzoyl)-3-oxo-N-[rac-(1S)-1-[2-fluoro-4-[rac-(1R)-2-amino-1-methyl-2-oxo-ethoxy]phenyl]ethyl]-2-[4-(2,2,2-trifluoroethoxy)phenyl]-6,8-dihydro-5H-imidazo[1,5-a]pyrazine-1-carboxamide]
  EC50: 100 to 500 nM

## C[C@H](Oc1ccc([C@H](C)NC(=O)c2c3n(c(=O)n2-c2ccc(OCC(F)(F)F)cc2)CCN(C(=O)c2ccc(Br)c(Cl)c2)C3)c(F)c1)C(N)=O (stereo in doubt) [Example 362, 7-(4-bromo-3-chloro-benzoyl)-3-oxo-N-[rac-(1S)-1-[2-fluoro-4-[rac-(1S)-2-amino-1-methyl-2-oxo-ethoxy]phenyl]ethyl]-2-[4-(2,2,2-trifluoroethoxy)phenyl]-6,8-dihydro-5H-imidazo[1,5-a]pyrazine-1-carboxamide]
  EC50: 100 to 500 nM

## C[C@H]1Cn2c(c3n(c2=O)C[C@@H](F)CN(Cc2ccccc2)C3=O)CN1C(=O)c1ccc(Br)c(Cl)c1 (stereo in doubt) [Example 371, 13-benzyl-4-(4-bromo-3-chlorobenzoyl)-11-fluoro-4,7,9,13-tetraazatricyclo[7.5.0.0^[2,7]]tetradec-1-ene-8,14-dione]
  EC50: < 100 nM

## C[C@H]1Cn2c(c3n(c2=O)C[C@H](F)CN(Cc2ccccc2)C3=O)CN1C(=O)c1ccc(Br)c(Cl)c1 (stereo in doubt) [Example 372, 13-benzyl-4-(4-bromo-3-chlorobenzoyl)-11-fluoro-4,7,9,13-tetraazatricyclo[7.5.0.0^[2,7]]tetradec-1-ene-8,14-dione]
  EC50: 100 to 500 nM

## C[C@@H]1Cn2c(c3n(c2=O)C[C@@H](F)CN(Cc2ccccc2)C3=O)CN1C(=O)c1ccc(Br)c(Cl)c1 (stereo in doubt) [Example 373, rac-(5R,11S)-13-benzyl-4-(4-bromo-3-chloro-benzoyl)-11-fluoro-5-methyl-4,7,9,13-tetrazatricyclo[7.5.0.0^2,7]tetradec-1-ene-8,14-dione]
  EC50: 100 to 500 nM

## C[C@@H]1Cn2c(c3n(c2=O)C[C@H](F)CN(Cc2ccccc2)C3=O)CN1C(=O)c1ccc(Br)c(Cl)c1 (stereo in doubt) [Example 374, rac-(5R,11R)-13-benzyl-4-(4-bromo-3-chloro-benzoyl)-11-fluoro-5-methyl-4,7,9,13-tetrazatricyclo[7.5.0.0^2,7]tetradec-1-ene-8,14-dione]
  EC50: 100 to 500 nM

## C[C@H](NC(=O)c1c2n(c(=O)n1-c1ccc(OCC(F)(F)F)cc1)CCN(C(=O)c1ccc(Br)c(Cl)c1)C2)c1ccc(OCC(N)=O)cc1-n1cccn1 (stereo in doubt) [Example 380, 7-(4-bromo-3-chloro-benzoyl)-3-oxo-N-[rac-(1S)-1-[4-(2-amino-2-oxo-ethoxy)-2-pyrazol-1-yl-phenyl]ethyl]-2-[4-(2,2,2-trifluoroethoxy)phenyl]-6,8-dihydro-5H-imidazo[1,5-a]pyrazine-1-carboxamide]
  EC50: > 5000 nM

## C[C@@H](NC(=O)c1c2n(c(=O)n1-c1ccc(OCC(F)(F)F)cc1)CCN(C(=O)c1ccc(Br)c(Cl)c1)C2)c1ccc(OCC(N)=O)cc1-n1cccn1 (stereo in doubt) [Example 381, 7-(4-bromo-3-chloro-benzoyl)-3-oxo-N-[rac-(1R)-1-[4-(2-amino-2-oxo-ethoxy)-2-pyrazol-1-yl-phenyl]ethyl]-2-[4-(2,2,2-trifluoroethoxy)phenyl]-6,8-dihydro-5H-imidazo[1,5-a]pyrazine-1-carboxamide]
  EC50: > 5000 nM

## C[C@H](NC(=O)c1c2n(c(=O)n1-c1ccc(OCC(F)(F)F)cc1)CCN(C(=O)c1ccc(Br)c(Cl)c1)C2)c1cccc2nccnc12 (stereo in doubt) [Example 384, 7-(4-bromo-3-chloro-benzoyl)-3-oxo-N-[rac-(1S)-1-quinoxalin-5-ylethyl]-2-[4-(2,2,2-trifluoroethoxy)phenyl]-6,8-dihydro-5H-imidazo[1,5-a]pyrazine-1-carboxamide]
  EC50: 100 to 500 nM
